The melting point is the temperature, or range, at which the solid turns liquid. A word on the Ki: it is the equilibrium dissociation constant of an inhibitor or competing ligand from its target. What is called IC50 is the concentration that inhibits the measured activity by half.

Consider 47 compounds from patent US6410561B1, “Amide derivatives and nociceptin antagonists” (Japan Tobacco Inc., priority 1998, dated 2002).

Structures can show the parent of a compound that is named as a salt.

One data set has as its target T1, μ receptor (Rattus norvegicus, UniProt P33535).
T1 construct: Rat cerebrum membrane standard sample; from tissue; host or cells: rat cerebrum membranes
Put plainly: μ receptor binding assay ([3H]DAMGO). To be noted: for Ki: calculated from IC50 and Kd of [3H]DAMGO; for IC50: rat cerebrum membrane, [3H]DAMGO 1 nM. On the procedure:
Rat cerebrum membrane standard sample (final concentration 0.755 mg·protein/ml), [^3H]DAMGO (Try-D-Ala-Gly-NMe-Phe-Gly-ol) [diluted with Tris buffer (50 mM Tris-HCl, 0.1 mM p-APMSF, 2 mg/ml BSA (pH=7.4)) to a final concentration of 1 nM] and test compound (diluted with Tris buffer to a final concentration of 10 nM-10 μM) were mixed, and the mixture was incubated at room temperature for 90 min. The membrane was recovered on a G/F-B filter (same as above) using a cell harvester and the reaction was stopped. After washing 3 times, the filter was dried at 42° C. for 1 hr. A scintillation solution (same as above) was added and the radioactivity (same as above) was assayed.
The nonspecific binding was the binding in the presence of 10 μM naloxone and the difference between the total binding and nonspecific binding was taken as the specific binding. IC50 was calculated from inhibition of specific binding at each concentration of the compound, and Ki value of the test compound was calculated from this value and Kd value of [^3H]DAMGO.

The target of another data set is T2, ORL-1 receptor (Homo sapiens, UniProt P41146).
T2 construct: expressed in transfected cells
Put plainly: ORL1 receptor binding assay ([3H]nociceptin). Particulars: for Ki: calculated from IC50 and Kd of [3H]nociceptin; for IC50: membrane of human ORL-1 expression cells, [3H]nociceptin 0.5 nM. The method, then:
ORL1 Receptor Binding Assay
A cell membrane suspension obtained from human ORL-1 expression cells was adjusted with Tris buffer [50 mM Tris, 2 mM EDTA, 0.1 mM (p-Amidinophenyl)methanesulfonyl Fluoride Hydrochloride (p-APMSF), 2 mg/ml BSA] to membrane protein amount of about 25 μg/ml (2.5 μg/well). This was mixed with [^3H]nociceptin (diluted with Tris buffer to a final concentration of 0.5 nM) and test compound (diluted with Tris buffer to a final concentration of 10 nM-10 μM), and the mixture was incubated at room temperature for 60 min. The membrane was recovered on a G/F-B filter (Packard, Unifilter 96GF/B) using a cell harvester and the reaction was stopped. After washing 3 times, the filter was dried at 42° C. for 1 hr. A scintillation solution (Packard, microscint-20) was added and the radioactivity (Packard, Top count A9912V) was assayed.
The nonspecific binding was the binding in the presence of 1 μM nociceptin and the difference between the total binding and nonspecific binding was taken as the specific binding. IC50 was calculated from inhibition of specific binding at each concentration of the compound, and Ki value of the test compound was calculated from this value and Kd value of [^3H]nociceptin.

A further data set deals with allodynia model. Put plainly: Allodynia test (intrathecal nociceptin, tactile stimulation). The data set is classed as in vivo, Mice. To be noted: Mus musculus; mice, oral, 60 min before nociceptin 50 pg i.t.; score at 20 min; read-out: Allodynia M.E.D. (minimum effective dose). The method, then:
Mice (Crj, ICR, 4-week-old, male) were intrathecally administered with nociceptin (50 pg/5 μl) without anesthesia. For 20 min after administration and at 5 min intervals, an area from lateral region to tail of the mice was rubbed with a brush and the response of the mice was observed. The evaluation followed the criteria of 0; no change, 1; run or cry upon tactile stimulation, and 2; cry loud or dash away upon tactile stimulation. The test compound was suspended in a 0.5% MC solution and orally administered 60 min before nociceptin administration. The significant difference of the score of each administration group at 20 min after nociceptin administration from the group administered with solvent was analyzed with Mann-Whitny U-test.

T1 sequence (P33535 whole entry): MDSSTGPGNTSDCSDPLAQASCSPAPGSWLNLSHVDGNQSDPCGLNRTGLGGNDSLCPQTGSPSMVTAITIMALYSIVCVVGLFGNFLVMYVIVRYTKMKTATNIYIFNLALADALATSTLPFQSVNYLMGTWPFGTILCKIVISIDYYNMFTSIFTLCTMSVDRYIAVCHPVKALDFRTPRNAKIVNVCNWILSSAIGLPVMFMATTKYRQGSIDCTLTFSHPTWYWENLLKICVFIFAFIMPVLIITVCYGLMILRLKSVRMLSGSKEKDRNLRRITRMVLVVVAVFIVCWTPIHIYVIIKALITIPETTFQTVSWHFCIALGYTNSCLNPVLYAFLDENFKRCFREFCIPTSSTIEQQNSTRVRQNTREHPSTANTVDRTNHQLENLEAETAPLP
T2 sequence (P41146 whole entry): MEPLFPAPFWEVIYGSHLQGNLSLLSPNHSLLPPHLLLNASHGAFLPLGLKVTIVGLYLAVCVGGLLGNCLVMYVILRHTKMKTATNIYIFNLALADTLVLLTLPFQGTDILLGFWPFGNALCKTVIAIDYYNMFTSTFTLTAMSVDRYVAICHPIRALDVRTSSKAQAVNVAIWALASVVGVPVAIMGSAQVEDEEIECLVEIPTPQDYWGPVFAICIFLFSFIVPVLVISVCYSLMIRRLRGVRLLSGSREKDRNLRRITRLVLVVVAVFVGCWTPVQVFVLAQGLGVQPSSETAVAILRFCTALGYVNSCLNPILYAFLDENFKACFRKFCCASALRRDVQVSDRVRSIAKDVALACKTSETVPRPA

On to `Cc1cc(N)c2cc(NC(=O)c3ccccc3CN(C(=O)OC(C)(C)C)c3ccc(Cl)cc3)ccc2n1.Cl`, for which the melting point was determined as 208 °C. The same measure, in the same setting: the same measure for `Cc1cc(N)c2cc(NC(=O)c3sccc3COc3ccc(Cl)cc3)ccc2n1.Cl`: 219 °C; for `CNc1cc(C)nc2ccc(NC(=O)c3ccccc3COc3ccccc3)cc12.Cl`: 284 °C; for `CCc1ccc(OCc2ccccc2C(=O)Nc2ccc3nccc(N)c3c2)cc1.Cl`: 219 °C. The compound `Cl.Nc1ccnc2ccc(NC(=O)c3ccccc3COc3ccc(Cl)cc3)cc12` had a melting point of 231 °C. On to `Cl.Nc1c2c(nc3ccc(NC(=O)c4ccccc4COc4ccc(Cl)cc4)cc13)CCCC2`, for which the melting point came to 283 °C.

Compound `CSc1nc2ccc(NC(=O)c3ccccc3COc3ccccc3)cc2[nH]1.Cl` yielded a melting point of 191 °C.

`Cl.Nc1cccc2ccc(NC(=O)c3ccccc3COc3ccccc3)cc12` yielded a melting point of 237 °C. Compound `Cc1ccc(OCc2ccccc2C(=O)Nc2ccc3nc(CO)cc(N)c3c2)cc1.Cl` displayed a melting point of 201 °C. `Cl.Nc1ccc(NC(=O)c2ccccc2COc2ccccc2)cc1` yielded a melting point of 241 °C. Still for that read-out and setting: next, `COc1cccc(OCc2ccccc2C(=O)Nc2ccc3nc(C)cc(N)c3c2)c1.Cl`: 224 °C; `Cc1cc(N)c2cc(NC(=O)c3ccccc3COc3ccc(-c4ccccc4)cc3)ccc2n1.Cl`: 268 °C; `Cc1cc(N)c2cc(NC(=O)c3ccccc3COc3ccc(C(C)C)cc3)ccc2n1.Cl`: 256 °C. The compound `Cc1cc(N)c2cc(NC(=O)c3ccccc3COc3cccc(F)c3)ccc2n1.Cl` showed a melting point of 255 °C.

Compound `Cc1cc(N)c2cc(NC(=O)c3ccccc3COc3cccc(C(F)(F)F)c3)ccc2n1.Cl` registered a melting point of 253 °C. The same measure, in the same setting: the same measure for `COC(=O)c1ccc(OCc2ccccc2C(=O)Nc2ccc3nc(C)cc(N)c3c2)cc1.Cl`: 262 °C; for `Cc1cc(N)c2cc(NC(=O)c3ccccc3COc3cccnc3)ccc2n1.Cl`: 207 °C; for `Cc1cc(N)c2cc(NC(=O)c3ccccc3COc3ccc(C(=O)O)cc3)ccc2n1.Cl`: 225 °C. `Cc1cc(N)c2cc(NC(=O)c3ccccc3COc3cccc(C#N)c3)ccc2n1.Cl`: the melting point worked out at 195 °C. On the same count and under the same terms, next, `CC(=O)OCc1ccc(OCc2ccccc2C(=O)Nc2ccc3nc(C)cc(N)c3c2)cc1.Cl`: 258 °C. Still for that read-out and setting: next, `Cc1cc(N)c2cc(NC(=O)c3ccccc3COc3ccc(CO)cc3)ccc2n1.Cl`: 273 °C; `COc1ccc(OCc2ccccc2C(=O)Nc2ccc3nc(C)cc(N)c3c2)cc1OC.Cl`: 270 °C. On the same count and under the same terms, the same measure for `Cc1cc(N)c2cc(NC(=O)c3ccccc3COc3ccc4c(c3)CCCC4)ccc2n1.Cl`: 176 °C. `Cc1cc(N)c2cc(NC(=O)c3cccc(CCc4ccccc4)c3)ccc2n1.Cl` yielded a melting point above 300 °C. Still for that read-out and setting: next, `Cc1cc(N)c2cc(NC(=O)c3ccccc3CCCCc3ccccc3)ccc2n1.Cl`: 233 °C; `Cc1cc(N)c2cc(NC(=O)c3ccccc3CCCCCCc3ccccc3)ccc2n1.Cl`: 213 °C. The same measure, in the same setting: next, `Cc1ccc(CCc2ccccc2C(=O)Nc2ccc3nc(C)cc(N)c3c2)cc1.Cl`: above 300 °C. Take `Cc1cc(N)c2cc(NC(=O)c3ccccc3OCc3ccccc3)ccc2n1.Cl`: the melting point amounted to 240 °C. Same read-out and setting: the same measure for `Cc1cc(N)c2cc(NC(=O)c3ccccc3COc3ccc4occc4c3)ccc2n1.Cl`: 269 °C; for `COCc1ccccc1C(=O)Nc1ccc2nc(C)cc(N)c2c1.Cl`: 244 °C. Turning to `Cc1cc(N)c2cc(NC(=O)c3ccccc3CSc3ccc(Cl)cc3)ccc2n1.Cl`, the melting point was 216 °C.

With `Cc1cc(N)c2cc(NC(=O)c3ccccc3C[S+]([O-])c3ccc(Cl)cc3)ccc2n1.Cl` (centres unmarked), the melting point worked out at 221 °C. The same measure, in the same setting: next, `Cc1cc(N)c2cc(NC(=O)c3ccccc3COc3ccc(N(C)C)cc3)ccc2n1` (as salt: hydrochloride): 233 °C. Still for that read-out and setting: the same measure for `Cc1cc(N)c2cc(NC(=O)c3ccccc3COc3ccc(N)cc3)ccc2n1` (as salt: hydrochloride) [Example 23, N-(4-amino-2-methyl-6-quinolyl)-2-[(4-aminophenoxy)methyl]benzamide dihydrochloride]: 237 °C.

With `COc1cc(OC)cc(OCc2ccccc2C(=O)Nc2ccc3nc(C)cc(N)c3c2)c1.Cl` [Example 10, N-(4-amino-2-methyl-6-quinolyl)-2-[(3,5-dimethoxyphenoxy)methyl]benzamide hydrochloride], on μ receptor, the Ki was 324 nM and the IC50 is 860 nM. In addition, on ORL-1 receptor, the Ki was 53 nM and the IC50 was determined as 1020 nM. In the data set with allodynia model, the minimal effective dose amounted to 3 mg/kg. The matching figures for `Cc1cc(N)c2cc(NC(=O)c3ccccc3COc3ccc(F)cc3)ccc2n1.Cl` [Example 25, N-(4-amino-2-methyl-6-quinolyl)-2-[(4-fluorophenoxy)methyl]benzamide hydrochloride]: 464 nM, 1180 nM, 8 nM, 150 nM and above 0.3 mg/kg. The matching figures for `Cc1cc(N)c2cc(NC(=O)c3ccccc3COc3ccc(I)cc3)ccc2n1` [Example 38, N-(4-amino-2-methyl-6-quinolyl)-2-[(4-iodophenoxy)methyl]benzamide]: 1020 nM, 2670 nM, 5 nM, 90 nM and above 0.3 mg/kg. As for `CCc1cc(N)c2cc(NC(=O)c3ccccc3COc3ccc(Cl)cc3Cl)ccc2n1` [Example 51], at μ receptor, the Ki was 525 nM and the IC50 was determined as 1400 nM. Besides, at ORL-1 receptor, the Ki was 8 nM and the IC50 came to 170 nM. With `Cc1cc(N)c2cc(NC(=O)c3ccccc3CCCOc3ccccc3)ccc2n1.Cl` [Example 61], on μ receptor, the Ki was 2010 nM and the IC50 came to 5350 nM. For the same compound, at ORL-1 receptor, the Ki was 63 nM and the 50% inhibitory concentration (IC50) stood at 1220 nM. The minimal effective dose in the data set with allodynia model is 3 mg/kg. In the same order, the values of `Cc1cc(N)c2cc(NC(=O)c3ccccc3CCOc3ccccc3)ccc2n1.Cl` [Example 62] are 783 nM, 2000 nM, 125 nM, 2360 nM and above 3 mg/kg.

For `Cc1cc(N)c2cc(NC(=O)c3ccccc3CCCCCCCOc3ccccc3)ccc2n1.Cl` [Example 65], at ORL-1 receptor, the Ki was 64 nM and the IC50 amounted to 1160 nM. Moreover, the minimal effective dose in the data set with allodynia model was above 3 mg/kg. `Cc1cc(N)c2cc(NC(=O)c3ccccc3CCc3ccccc3)ccc2n1` [Example 71]: on ORL-1 receptor, the Ki is 89 nM and the IC50 was 1770 nM. Besides, in the data set with allodynia model, the minimal effective dose amounted to 30 mg/kg. In the case of `Cc1cc(N)c2cc(NC(=O)c3ccccc3CN(C)c3ccc(Cl)cc3)ccc2n1` [Example 101], the melting point was 214 °C. Still for that read-out and setting: next, `Cc1cc(N)c2cc(NC(=O)c3ccccc3CNc3ccc(Cl)cc3)ccc2n1` [Example 102]: 274 °C. The same measure, in the same setting: the same measure for `Cc1cc(N)c2cc(NC(=O)[C@@H]3CCCN3CCOc3ccc(Cl)cc3)ccc2n1` [Example 113]: 216 °C; for `Cc1cc(N)c2cc(NC(=O)[C@@H]3CCCN3CCCOc3ccc(Cl)cc3)ccc2n1` [Example 114]: 211 °C; for `Cc1cc(N)c2cc(NC(=O)[C@H]3CCCN3CCOc3ccc(Cl)cc3)ccc2n1` [Example 115]: 253 °C.
